Where a SMILES comes first, the peptide text is derived from it. [ ]: non-standard residue; d: D form. The star is where a group is joined. dProψ(CH2NH)PheNH2 = NC(=O)[C@H](Cc1ccccc1)NC[C@H]1CCCN1*; Hydrocinnamoyl = O=C(CCc1ccccc1)*; pGlu = O=C1CC[C@@H](C(=O)O)N1
Assays:
[1] = target: T1, Bombesin receptor subtype-3 (Homo sapiens, UniProt P32247)
T1 sequence (P32247 whole entry): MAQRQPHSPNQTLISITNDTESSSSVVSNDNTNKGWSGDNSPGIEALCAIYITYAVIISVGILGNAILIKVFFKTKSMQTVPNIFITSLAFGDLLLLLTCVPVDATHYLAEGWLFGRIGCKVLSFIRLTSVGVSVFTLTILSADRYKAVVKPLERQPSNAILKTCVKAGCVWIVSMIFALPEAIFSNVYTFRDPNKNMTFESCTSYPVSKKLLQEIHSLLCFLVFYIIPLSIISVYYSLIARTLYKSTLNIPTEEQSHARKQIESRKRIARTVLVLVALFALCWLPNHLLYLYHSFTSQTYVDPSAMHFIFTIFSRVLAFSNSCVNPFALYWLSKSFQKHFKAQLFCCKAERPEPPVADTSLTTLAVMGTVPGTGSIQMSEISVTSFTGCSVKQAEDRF

[2] = target: Gastrin-releasing peptide receptor (Rattus norvegicus, UniProt P52500)
[3] = target: T2, Neuromedin-B receptor (Rattus norvegicus, UniProt P24053)
T2 sequence (P24053 whole entry): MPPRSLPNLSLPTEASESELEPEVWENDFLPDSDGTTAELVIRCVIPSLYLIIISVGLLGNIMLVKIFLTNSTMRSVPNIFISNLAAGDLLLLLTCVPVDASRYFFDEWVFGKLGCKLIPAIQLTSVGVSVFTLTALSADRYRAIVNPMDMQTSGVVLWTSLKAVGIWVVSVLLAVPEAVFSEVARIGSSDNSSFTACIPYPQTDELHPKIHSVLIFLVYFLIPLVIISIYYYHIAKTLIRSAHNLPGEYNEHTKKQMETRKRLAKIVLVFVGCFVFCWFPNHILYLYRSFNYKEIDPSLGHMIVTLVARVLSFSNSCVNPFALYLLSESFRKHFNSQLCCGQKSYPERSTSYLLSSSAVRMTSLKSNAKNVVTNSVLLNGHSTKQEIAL

Gastrin-releasing peptide receptor, sequence (P52500 whole entry N28S): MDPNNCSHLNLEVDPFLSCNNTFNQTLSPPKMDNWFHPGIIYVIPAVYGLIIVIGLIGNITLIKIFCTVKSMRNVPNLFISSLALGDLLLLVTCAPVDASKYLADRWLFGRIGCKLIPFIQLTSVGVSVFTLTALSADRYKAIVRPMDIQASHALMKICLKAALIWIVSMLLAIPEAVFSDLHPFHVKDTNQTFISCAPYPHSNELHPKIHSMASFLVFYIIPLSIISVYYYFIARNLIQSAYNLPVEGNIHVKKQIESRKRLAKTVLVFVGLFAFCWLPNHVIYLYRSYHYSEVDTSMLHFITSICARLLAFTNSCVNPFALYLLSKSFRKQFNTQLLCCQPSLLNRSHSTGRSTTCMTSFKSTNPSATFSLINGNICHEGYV

Row | Molecule | Ki [1] [µM] | Ki [2] [nM] | Ki [3] [nM]
1 | CSCC[C@H](NC(=O)[C@H](Cc1ccccc1)NC(=O)[C@H](Cc1c[nH]cn1)NC(=O)CNC(=O)[C@@H](NC(=O)[C@H](C)NC(=O)[C@H](Cc1c[nH]c2ccccc12)NC(=O)[C@H](CC(C)C)NC(=O)[C@@H]1CCC(=O)N1)[C@@H](C)O)C(N)=O [CAS_125988] | 3.1 | 31 | 460
2 | CSCC[C@H](NC(=O)[C@H](Cc1ccccc1)NC(=O)[C@H](Cc1c[nH]cn1)NC(=O)CNC(=O)[C@@H](NC(=O)[C@H](C)NC(=O)[C@H](Cc1c[nH]c2ccccc12)NC(=O)[C@H](CCC(N)=O)NC(=O)[C@@H]1CCC(=O)N1)C(C)C)C(N)=O [CAS_5486808] | 4.1 | 6 | 7
3 | CSCC[C@H](NC(=O)[C@H](CC(C)C)NC(=O)[C@H](Cc1c[nH]cn1)NC(=O)CNC(=O)[C@@H](NC(=O)[C@H](C)NC(=O)[C@H](Cc1c[nH]c2ccccc12)NC(=O)[C@H](Cc1c[nH]cn1)NC(=O)[C@H](CC(N)=O)NC(=O)CNC(=O)[C@H](CCCN=C(N)N)NC(=O)[C@@H]1CCCN1C(=O)[C@H](Cc1ccc(O)cc1)NC(=O)[C@H](CCSC)NC(=O)[C@H](CCCCN)NC(=O)[C@@H](NC(=O)[C@H](CC(C)C)NC(=O)[C@@H](NC(=O)[C@@H](NC(=O)CNC(=O)CNC(=O)CNC(=O)[C@H](C)NC(=O)[C@@H]1CCCN1C(=O)[C@H](CC(C)C)NC(=O)[C@@H]1CCCN1C(=O)[C@@H](N)C(C)C)[C@@H](C)O)C(C)C)[C@@H](C)O)C(C)C)C(N)=O [CAS_93755-85-2] | > 10 |  | 440
4 | CCCCNC(=O)[C@H](CC(C)C)NC(=O)[C@H](Cc1cnc[nH]1)NC(=O)[C@@H](C)NC(=O)[C@@H](NC(=O)[C@H](C)NC(=O)[C@H](Cc1c[nH]c2ccccc12)NC(=O)[C@H](CCC(N)=O)NC(=O)[C@H](N)Cc1ccc(O)cc1)C(C)C [DTyr6,DAla11-Bn(6-13)butylamide] | 5.3 | 6 | 2300
5 | CC(C)C[C@H](NC(=O)[C@H](Cc1cnc[nH]1)NC(=O)CNC(=O)[C@@H](NC(=O)[C@H](C)NC(=O)[C@H](Cc1c[nH]c2ccccc12)NC(=O)[C@H](CCC(N)=O)NC(=O)[C@H](N)Cc1ccccc1)C(C)C)C(N)=O [DPhe6-Bn(6-13)NH2] | > 10 | 27 | > 10000
6 | CCCCCCNC(=O)[C@H](CC(C)C)NC(=O)[C@H](Cc1cnc[nH]1)NC(=O)CNC(=O)[C@@H](NC(=O)[C@H](C)NC(=O)[C@H](Cc1c[nH]c2ccccc12)NC(=O)[C@H](CCC(N)=O)NC(=O)[C@H](N)Cc1ccccc1)C(C)C [DPhe6-Bn(6-13)hexylamide] | 3.2 | 100 | > 10000
7 | CC(C)[C@H](NC(=O)[C@H](C)NC(=O)[C@H](Cc1c[nH]c2ccccc12)NC(=O)[C@H](Cc1cnc[nH]1)NC(=O)CCc1ccccc1)C(=O)N[C@H](C)C(=O)N[C@@H](Cc1cnc[nH]1)C(=O)N1CCC[C@@H]1CN[C@@H](Cc1ccccc1)C(N)=O [CAS_l] (Hydrocinnamoyl-HWAV[dA]H-{dProψ(CH2NH)PheNH2}) |  | 0.74 | > 10000
8 | CC(C)C[C@H](NC(=O)[C@H](Cc1cnc[nH]1)NC(=O)CNC(=O)[C@@H](NC(=O)[C@H](C)NC(=O)[C@H](Cc1c[nH]c2ccccc12)NC(=O)[C@H](CCC(N)=O)NC(=O)[C@@H](Cc1ccccc1)NC(=O)CNC(=O)[C@H](CC(C)C)NC(=O)[C@H](CCCN=C(N)N)NC(=O)[C@H](CCC(N)=O)NC(=O)[C@@H]1CCC(=O)N1)C(C)C)C(N)=O [DPhe6-Bn(1-13)NH2] | > 10 | 450 | > 10000
9 | CSCC[C@H](NC(=O)[C@H](Cc1ccccc1)NC(=O)[C@H](Cc1cnc[nH]1)NC(=O)CNC(=O)[C@@H](NC(=O)[C@H](C)NC(=O)[C@H](Cc1c[nH]c2ccccc12)NC(=O)[C@H](CCC(N)=O)NC(=O)[C@H](CC(N)=O)NC(=O)CNC(=O)[C@H](CC(C)C)NC(=O)[C@H](CCCN=C(N)N)NC(=O)[C@H](CCC(N)=O)NC(=O)[C@@H]1CCC(=O)N1)C(C)C)C(N)=O [Bombesin,Phe13] | 6.6 | 0.77 | 6
10 | CC(C)C[C@@H](CN[C@@H](Cc1ccc(Cl)cc1)C(N)=O)NC(=O)[C@H](Cc1c[nH]cn1)NC(=O)CNC(=O)[C@@H](NC(=O)[C@H](C)NC(=O)[C@H](Cc1c[nH]c2ccccc12)NC(=O)[C@H](CCC(N)=O)NC(=O)[C@H](N)Cc1ccccc1)C(C)C [DPhe6,Leu13,Psi(CH2NH),Cpa14-Bn(6-14)] | > 10 | 42 | 2700
11 | CC(C)C[C@H](NC(=O)[C@H](Cc1cnc[nH]1)NC(=O)CNC(=O)[C@@H](NC(=O)[C@H](C)NC(=O)[C@H](Cc1c[nH]c2ccccc12)NC(=O)[C@H](CCC(N)=O)NC(=O)[C@H](N)Cc1ccccc1)C(C)C)C(=O)NN(C)C [DPhe6-Bn(6-13)NHN(ME)2] | > 10 | 3200 | > 10000

The remaining lines, values ahead:

Row | Ki [1] [µM] | Ki [2] [nM] | Ki [3] [nM] | Molecule
12 | 2.3 | > 10000 | 2500 | CSCC[C@H](NC(=O)[C@@H](Cc1c[nH]c2ccccc12)NC(=O)[C@@H](Cc1c[nH]c2ccccc12)NC(=O)[C@H](Cc1ccccc1)NC(=O)[C@@H](Cc1c[nH]c2ccccc12)NC(=O)[C@H](CCC(N)=O)NC(=O)[C@H](CCC(N)=O)NC(=O)[C@H]1CCCN1)C(N)=O [Substance P(4-11),[Dpro4,Dtrp7,9,10]] (H-[dP]QQ[dW]F[dW][dW]M-NH2)
13 | > 10 | 11300 | 4100 | CC(C)C[C@H](NC(=O)[C@H](CC(C)C)NC(=O)[C@@H](Cc1c[nH]c2ccccc12)NC(=O)[C@H](Cc1ccccc1)NC(=O)[C@@H](Cc1c[nH]c2ccccc12)NC(=O)[C@H](CCC(N)=O)NC(=O)[C@H](CCC(N)=O)NC(=O)[C@@H]1CCCN1C(=O)[C@H](CCCCN)NC(=O)[C@@H]1CCCN1C(=O)[C@H](N)CCCN=C(N)N)C(N)=O [Substance P,[DArg1,DTrp7,9,Leu11]] (H-[dR]PKPQQ[dW]F[dW]LL-NH2)
14 | 5.4 | 420 | > 10000 | CSCC[C@H](NC(=O)[C@H](CC(C)C)NC(=O)[C@H](CO)NC(=O)CNC(=O)[C@@H](NC(=O)[C@H](C)NC(=O)[C@H](Cc1c[nH]c2ccccc12)NC(=O)[C@H](CC(C)C)NC(=O)[C@@H]1CCC(=O)N1)C(C)C)C(N)=O [Leu8-phyllolitorin] ([pGlu]LWAVGSLM-NH2)
15 | > 10 | 1200 | > 10000 | CC(C)C[C@H](NC(=O)[C@H](Cc1cnc[nH]1)NC(=O)CNC(=O)[C@@H](NC(=O)[C@H](C)NC(=O)[C@H](Cc1c[nH]c2ccccc12)NC(=O)[C@H](CCC(N)=O)NC(=O)[C@H](N)Cc1ccccc1)C(C)C)C(=O)NN [DPhe6-Bn(6-13)hydrazide]
16 | 2.1 | 240 | 47 | CSCC[C@H](NC(=O)[C@H](Cc1ccccc1)NC(=O)[C@H](CO)NC(=O)CNC(=O)[C@@H](NC(=O)[C@H](C)NC(=O)[C@H](Cc1c[nH]c2ccccc12)NC(=O)[C@H](CC(C)C)NC(=O)[C@@H]1CCC(=O)N1)C(C)C)C(N)=O [NSC_5748287]
17 | > 10 | 20 | 140 | CSCCC(NC(=O)C(CC(C)C)NC(=O)C(Cc1cnc[nH]1)NC(=O)CNC(=O)C(NC(=O)C(C)NC(=O)C(Cc1c[nH]c2ccccc12)NC(=O)C(Cc1cnc[nH]1)NC(=O)C(CC(N)=O)NC(=O)CN)C(C)C)C(N)=O (configuration not stated) [NSC_5486814]
18 | 5.3 | 3 | 210 | H-EGGGPQWAVGHFM-NH2 [PG-L]

— BindingDB's records for doi:10.1021/bi990204w (National Institute of Diabetes and Digestive and Kidney …, 1999)
